In PubChem BioAssay (NCI):
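Protocol summary: plate cells (96-well), add compound at 5 concentrations, incubate 48 h, interpolate endpoints linearly. Here, GI50 denotes the concentration required for 50% inhibition of growth. TGI is the concentration that stops growth completely.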

Key:
Assay in all cases: NCI tumour cell line growth inhibition, 48 h
[1] = tested on: UACC-257 melanoma
[2] = tested on: SK-OV-3 ovarian
[3] = tested on: NCI-H23 lung
[4] = tested on: MOLT-4 leukemia
[5] = tested on: HOP-62 NSCLC
[6] = tested on: SK-MEL-28 melanoma
[7] = tested on: MALME-3M melanoma
[8] = tested on: OVCAR-5 ovarian
[9] = tested on: EKVX NSCLC
[10] = tested on: NCI-H460 lung
[11] = tested on: ACHN renal
[12] = tested on: OVCAR-4 ovarian
[13] = tested on: HL-60(TB) leukemia
[14] = tested on: K-562 leukemia
[15] = tested on: UACC-62 melanoma
[16] = tested on: PC-3 prostate
[17] = tested on: U251 CNS
[18] = tested on: COLO 205 colon
[19] = tested on: LOX IMVI melanoma
[20] = tested on: A498 renal
[21] = tested on: SNB-75 CNS
[22] = tested on: SN12C renal
[23] = tested on: HOP-92 NSCLC
[24] = tested on: HCT-116 colon
[25] = tested on: HT29 colon
[26] = tested on: TK-10 renal
[27] = tested on: SF-295 CNS
[28] = tested on: BT-549 breast
[29] = tested on: IGROV1 ovarian
[30] = tested on: HCC-2998 colon
[31] = tested on: DU-145 prostate
[32] = tested on: SW-620 colon
[33] = tested on: 786-0 renal
[34] = tested on: HCT-15 colon
[35] = tested on: HS 578T breast
[36] = tested on: MCF7 breast
[37] = tested on: SNB-19 CNS
[38] = tested on: T-47D breast
[39] = tested on: SF-539 CNS
[40] = tested on: MDA-MB-231 breast
[41] = tested on: NCI/ADR-RES ovarian
[42] = tested on: KM12 colon
[43] = tested on: A549 NSCLC
[44] = tested on: UO-31 renal
[45] = tested on: CAKI-1 renal
[46] = tested on: CCRF-CEM leukemia
[47] = tested on: SF-268 CNS
[48] = tested on: SK-MEL-5 melanoma
[49] = tested on: OVCAR-8 ovarian
[50] = tested on: NCI-H522 lung
[51] = tested on: SK-MEL-2 melanoma
[52] = tested on: RPMI-8226 leukemia
[53] = tested on: NCI-H226 lung
[54] = tested on: RXF 393 renal
[55] = tested on: M14 melanoma
[56] = tested on: MDA-MB-435
[57] = tested on: SR leukemia

`Cn1ccnc1C(=O)/C=C/c1ccc(CNC(=O)c2ccc(S(F)(F)(F)(F)F)cc2)cc1` showed a GI50 [1] of 5.73 µM, a TGI [1] of 15.2 µM and a GI50 [2] of 7.7 µM. It also gave a TGI [2] greater than 25 µM, a GI50 [3] of 3.02 µM and a TGI [3] of 7.69 µM. The GI50 [4] was 5.53 µM, the TGI [4] was 22.5 µM and the GI50 [5] was 4.31 µM. It also gave a TGI [5] of 9.55 µM, a GI50 [6] of 5.2 µM and a TGI [6] of 11.4 µM. The GI50 [7] was 4.85 µM, the TGI [7] was 12 µM and the GI50 [8] was 4.48 µM. For the same compound, the TGI [8] was 11.6 µM, the GI50 [9] was 4.38 µM and the TGI [9] was 10.3 µM. For the same compound, the GI50 [10] was 3.34 µM, the TGI [10] was 9.53 µM and the GI50 [11] was 4.23 µM. It also gave a TGI [11] of 7.74 µM, a GI50 [12] of 3.64 µM and a TGI [12] of 11.3 µM. For the same compound, the GI50 [13] was 4.87 µM, the TGI [13] was 17.1 µM and the GI50 [14] was 1.05 µM. For the same compound, the TGI [14] was greater than 25 µM, the GI50 [15] was 3.98 µM and the TGI [15] was 9.1 µM. The GI50 [16] was 3.64 µM, the TGI [16] was 10.3 µM and the GI50 [17] was 1.45 µM. For the same compound, the TGI [17] was 5.33 µM, the GI50 [18] was 4.22 µM and the TGI [18] was 9.07 µM. It also gave a GI50 [19] of 1.12 µM, a TGI [19] of 4.2 µM and a GI50 [20] of 3.41 µM. It also gave a TGI [20] of 6.84 µM, a GI50 [21] of 2.12 µM and a TGI [21] of 5.41 µM. It also gave a GI50 [22] of 5.74 µM, a TGI [22] of 18.6 µM and a GI50 [23] of 4.38 µM. For the same compound, the TGI [23] was 12.1 µM, the GI50 [24] was 3.17 µM and the TGI [24] was 7.36 µM. It also gave a GI50 [25] of 3.9 µM, a TGI [25] of 8.68 µM and a GI50 [26] of 4.38 µM. The TGI [26] was 9.15 µM, the GI50 [27] was 3.6 µM and the TGI [27] was 7.15 µM. For the same compound, the GI50 [28] was 3.49 µM, the TGI [28] was 7.63 µM and the GI50 [29] was 3.76 µM. For the same compound, the TGI [29] was 10.6 µM, the GI50 [30] was 3.7 µM and the TGI [30] was 7.17 µM. For the same compound, the GI50 [31] was 3.26 µM, the TGI [31] was 6.6 µM and the GI50 [32] was 1.66 µM. The TGI [32] was 5.85 µM, the GI50 [33] was 4.09 µM and the TGI [33] was 8.27 µM. The GI50 [34] was 1.36 µM, the TGI [34] was 6.49 µM and the GI50 [35] was 5.45 µM. For the same compound, the TGI [35] was 21.4 µM, the GI50 [36] was 0.868 µM and the TGI [36] was 4.79 µM. It also gave a GI50 [37] of 3.21 µM, a TGI [37] of 7.07 µM and a GI50 [38] of 4.32 µM. The TGI [38] was 18.6 µM, the GI50 [39] was 3.37 µM and the TGI [39] was 7.04 µM. It also gave a GI50 [40] of 5.57 µM, a TGI [40] of 18.9 µM and a GI50 [41] of 5.71 µM. For the same compound, the TGI [41] was greater than 25 µM, the GI50 [42] was 2.8 µM and the TGI [42] was 6.02 µM. The GI50 [43] was 5.92 µM, the TGI [43] was greater than 25 µM and the GI50 [44] was 3.36 µM. The TGI [44] was 6.59 µM, the GI50 [45] was 3.26 µM and the TGI [45] was 6.9 µM. It also gave a GI50 [46] of 3.25 µM, a TGI [46] greater than 25 µM and a GI50 [47] of 3.44 µM. The TGI [47] was 7.52 µM, the GI50 [48] was 4.57 µM and the TGI [48] was 8.52 µM. The GI50 [49] was 6.54 µM, the TGI [49] was greater than 25 µM and the GI50 [50] was 4.11 µM. The TGI [50] was 8.23 µM, the GI50 [51] was 4.24 µM and the TGI [51] was 9.22 µM. The GI50 [52] was 1.3 µM, the TGI [52] was 8.28 µM and the GI50 [53] was 5.84 µM. It also gave a TGI [53] greater than 25 µM, a GI50 [54] of 3.53 µM and a TGI [54] of 7.41 µM. It also gave a GI50 [55] of 4.58 µM, a TGI [55] of 9.4 µM and a GI50 [56] of 5.76 µM. The TGI [56] was 16.1 µM, the GI50 [57] was 0.854 µM and the TGI [57] was greater than 25 µM.
